Measured values reported in ChEMBL document CHEMBL1156506, “Changes to the HIV long terminal repeat and to HIV integrase differentially impact HIV integrase assembly, activity, and the binding of strand transfer inhibitors” (J Biol Chem, 2007).

Assays:
[1] = test system: Human immunodeficiency virus; test: Inhibition of HIV wild type integrase assessed as specific strand transfer activity using U5 GTC LTR by scintillation proximity assay relative to wild type LTR; set-up: scale not given: the % may be the effect or the level left; details: tested as the 3H-labelled form
[2] = test system: Human immunodeficiency virus type 1 integrase (Human immunodeficiency virus 1), Q7ZJM1 [Q148R]; test: Inhibition of HIV recombinant integrase Q148R mutant assessed as strand transfer activity using U5 GdCA LTR by scintillation proximity assay relative to wild type LTR; set-up: scale not given: the % may be the effect or the level left; details: tested as the 3H-labelled form
[3] = test system: Human immunodeficiency virus type 1 integrase (Human immunodeficiency virus 1), Q7ZJM1 [N155H]; test: Binding affinity to HIV recombinant integrase N155H mutant using U5 GddA LTR relative to wild type LTR; details: tested as the 3H-labelled form
[4] = test system: Human immunodeficiency virus; test: Inhibition of HIV wild type integrase assessed as strand transfer activity using U5 GCCA LTR by scintillation proximity assay relative to wild type LTR; set-up: scale not given: the % may be the effect or the level left; details: tested as the 3H-labelled form
[5] = test system: Human immunodeficiency virus; test: Binding affinity to HIV wild type integrase using U5 GdC LTR relative to wild type LTR; details: tested as the 3H-labelled form
[6] = test system: Human immunodeficiency virus; test: Binding affinity to HIV wild type integrase using U5 TTCA LTR relative to wild type LTR; details: tested as the 3H-labelled form
[7] = test system: Human immunodeficiency virus; test: Inhibition of HIV wild type integrase assessed as specific strand transfer activity using U5 GTdA LTR by scintillation proximity assay relative to wild type LTR; set-up: scale not given: the % may be the effect or the level left; details: tested as the 3H-labelled form
[8] = test system: Human immunodeficiency virus; test: Inhibition of HIV wild type integrase assessed as strand transfer activity using U5 GTCAGT LTR by scintillation proximity assay relative to wild type LTR; set-up: scale not given: the % may be the effect or the level left; details: tested as the 3H-labelled form
[9] = test system: Human immunodeficiency virus type 1 integrase (Human immunodeficiency virus 1), Q7ZJM1 [N155H]; test: Binding affinity to HIV recombinant integrase N155H mutant using U5 GdCA LTR relative to wild type LTR; details: tested as the 3H-labelled form
[10] = test system: Human immunodeficiency virus; test: Inhibition of HIV wild type integrase assessed as strand transfer activity using U5 GTAA LTR by scintillation proximity assay relative to wild type LTR; set-up: scale not given: the % may be the effect or the level left; details: tested as the 3H-labelled form
[11] = test system: Human immunodeficiency virus; test: Inhibition of HIV wild type integrase assessed as strand transfer activity using U5 GTTC LTR by scintillation proximity assay relative to wild type LTR; set-up: scale not given: the % may be the effect or the level left; details: tested as the 3H-labelled form
[12] = test system: Human immunodeficiency virus; test: Inhibition of HIV wild type integrase assessed as strand transfer activity using U5 GTGT LTR by scintillation proximity assay relative to wild type LTR; set-up: scale not given: the % may be the effect or the level left; details: tested as the 3H-labelled form
[13] = test system: Human immunodeficiency virus type 1 integrase (Human immunodeficiency virus 1), Q7ZJM1 [N155H]; test: Inhibition of HIV recombinant integrase N155H mutant assessed as strand transfer activity using U5 GTCA LTR by scintillation proximity assay relative to wild type LTR; set-up: scale not given: the % may be the effect or the level left; details: tested as the 3H-labelled form
[14] = test system: Human immunodeficiency virus; test: Inhibition of HIV wild type integrase assessed as strand transfer activity using U5 ATCA LTR by scintillation proximity assay relative to wild type LTR; set-up: scale not given: the % may be the effect or the level left; details: tested as the 3H-labelled form
[15] = test system: Human immunodeficiency virus; test: Inhibition of HIV wild type integrase assessed as strand transfer activity using U5 GTGC LTR by scintillation proximity assay relative to wild type LTR; set-up: scale not given: the % may be the effect or the level left; details: tested as the 3H-labelled form
[16] = test system: Human immunodeficiency virus; test: Binding affinity to HIV wild type integrase using U5 GInCA LTR relative to wild type LTR; details: tested as the 3H-labelled form
[17] = test system: Human immunodeficiency virus type 1 integrase (Human immunodeficiency virus 1), Q7ZJM1 [Q148R]; test: Inhibition of HIV recombinant integrase Q148R mutant assessed as strand transfer activity using U5 ApTCA LTR by scintillation proximity assay relative to wild type LTR; set-up: scale not given: the % may be the effect or the level left; details: tested as the 3H-labelled form
[18] = test system: Human immunodeficiency virus; test: Inhibition of HIV wild type integrase assessed as strand transfer activity using U5 GACA LTR by scintillation proximity assay relative to wild type LTR; set-up: scale not given: the % may be the effect or the level left; details: tested as the 3H-labelled form
[19] = test system: Human immunodeficiency virus type 1 integrase (Human immunodeficiency virus 1), Q7ZJM1 [N155H]; test: Binding affinity to HIV recombinant integrase N155H mutant using U5 TTCA LTR relative to wild type LTR; details: tested as the 3H-labelled form
[20] = test system: Human immunodeficiency virus type 1 integrase (Human immunodeficiency virus 1), Q7ZJM1 [N155H]; test: Binding affinity to HIV recombinant integrase N155H mutant using U5 GTCA LTR relative to wild type LTR; details: tested as the 3H-labelled form
[21] = test system: Human immunodeficiency virus; test: Inhibition of HIV wild type integrase assessed as strand transfer activity U5 GTCA/CC LTR by scintillation proximity assay relative to wild type LTR; set-up: scale not given: the % may be the effect or the level left; details: tested as the 3H-labelled form
[22] = test system: Human immunodeficiency virus; test: Inhibition of HIV wild type integrase assessed as specific strand transfer activity using U5 GInCA LTR by scintillation proximity assay relative to wild type LTR; set-up: scale not given: the % may be the effect or the level left; details: tested as the 3H-labelled form
[23] = test system: Human immunodeficiency virus type 1 integrase (Human immunodeficiency virus 1), Q7ZJM1 [N155H]; test: Inhibition of HIV recombinant integrase N155H mutant assessed as specific strand transfer activity using U5 dTCA LTR by scintillation proximity assay relative to wild type LTR; set-up: scale not given: the % may be the effect or the level left; details: tested as the 3H-labelled form
[24] = test system: Human immunodeficiency virus; test: Inhibition of HIV wild type integrase assessed as strand transfer activity using U5 GInCA LTR by scintillation proximity assay relative to wild type LTR; set-up: scale not given: the % may be the effect or the level left; details: tested as the 3H-labelled form
[25] = test system: Human immunodeficiency virus; test: Inhibition of HIV wild type integrase assessed as strand transfer activity using U5 GTC LTR by scintillation proximity relative; set-up: scale not given: the % may be the effect or the level left; details: tested as the 3H-labelled form
[26] = test system: Human immunodeficiency virus; test: Binding affinity to HIV wild type integrase using U5 GACA LTR relative to wild type LTR; details: tested as the 3H-labelled form
[27] = test system: Human immunodeficiency virus; test: Inhibition of HIV wild type integrase assessed as specific strand transfer activity using U5 INTCA LTR by scintillation proximity assay relative to wild type LTR; set-up: scale not given: the % may be the effect or the level left; details: tested as the 3H-labelled form
[28] = test system: Human immunodeficiency virus; test: Inhibition of HIV wild type integrase assessed as strand transfer activity using U5 GTCACA LTR by scintillation proximity assay relative to wild type LTR; set-up: scale not given: the % may be the effect or the level left; details: tested as the 3H-labelled form
[29] = test system: Human immunodeficiency virus; test: Binding affinity to HIV wild type integrase using U5 GTCA/CG LTR relative to wild type LTR; details: tested as the 3H-labelled form
[30] = test system: Human immunodeficiency virus; test: Binding affinity to HIV wild type integrase U5 GACA/CT LTR relative to wild type LTR; details: tested as the 3H-labelled form
[31] = test system: Human immunodeficiency virus; test: Inhibition of HIV wild type integrase assessed as strand transfer activity using U5 GTCA/CG LTR by scintillation proximity assay relative to wild type LTR; set-up: scale not given: the % may be the effect or the level left; details: tested as the 3H-labelled form
[32] = test system: Human immunodeficiency virus; test: Binding affinity to HIV wild type integrase using U5 GTGT LTR relative to wild type LTR; details: tested as the 3H-labelled form
[33] = test system: Human immunodeficiency virus; test: Inhibition of HIV wild type integrase assessed as strand transfer activity usingU5 GTCA/CT LTR by scintillation proximity assay relative to wild type LTR; set-up: scale not given: the % may be the effect or the level left; details: tested as the 3H-labelled form
[34] = test system: Human immunodeficiency virus; test: Inhibition of HIV wild type integrase assessed as strand transfer activity using U5 GTCT LTR by scintillation proximity assay relative to wild type LTR; set-up: scale not given: the % may be the effect or the level left; details: tested as the 3H-labelled form
[35] = test system: Human immunodeficiency virus; test: Binding affinity to HIV wild type integrase using U5 GddA LTR relative to wild type LTR; details: tested as the 3H-labelled form
[36] = test system: Human immunodeficiency virus; test: Inhibition of HIV wild type integrase assessed as strand transfer activity using U5 GTdA LTR by scintillation proximity assay relative to wild type LTR; set-up: scale not given: the % may be the effect or the level left; details: tested as the 3H-labelled form
[37] = test system: Human immunodeficiency virus; test: Binding affinity to HIV wild type integrase using U5 GTCA/CddC LTR relative to wild type LTR; details: tested as the 3H-labelled form
[38] = test system: Human immunodeficiency virus type 1 integrase (Human immunodeficiency virus 1), Q7ZJM1 [N155H]; test: Inhibition of HIV recombinant integrase N155H mutant assessed as strand transfer activity using U5 ApTCA LTR by scintillation proximity assay relative to wild type LTR; set-up: scale not given: the % may be the effect or the level left; details: tested as the 3H-labelled form
[39] = test system: Human immunodeficiency virus; test: Binding affinity to HIV wild type integrase using U5 GTCA/C LTR relative to wild type LTR; details: tested as the 3H-labelled form
[40] = test system: Human immunodeficiency virus; test: Inhibition of HIV wild type integrase assessed as specific strand transfer activity using U5 TTCA LTR by scintillation proximity assay relative to wild type LTR; set-up: scale not given: the % may be the effect or the level left; details: tested as the 3H-labelled form
[41] = test system: Human immunodeficiency virus; test: Binding affinity to U5 GTCT LTR HIV wild type integrase using U5 GTCT LTR relative to wild type LTR; details: tested as the 3H-labelled form
[42] = test system: Human immunodeficiency virus; test: Binding affinity to HIV wild type integrase U5 CTCA LTR relative to wild type LTR; details: tested as the 3H-labelled form
[43] = Inhibition of HIV wild type integrase DNA complex; set-up: species or system Human immunodeficiency virus
[44] = test system: Human immunodeficiency virus; test: Inhibition of HIV wild type integrase assessed as specific strand transfer activity using U5 dTCA LTR by scintillation proximity assay relative to wild type LTR; set-up: scale not given: the % may be the effect or the level left; details: tested as the 3H-labelled form
[45] = test system: Human immunodeficiency virus; test: Binding affinity to HIV wild type integrase using U5 GGCA LTR relative to wild type LTR; details: tested as the 3H-labelled form

Molecule Cn1c(N2CCCCS2(=O)=O)nc(C(=O)NCc2ccc(F)cc2)c(O)c1=O [BMS-707035] has an Activity [1] of 100%, an Activity [2] of 0.6% and an Activity [3] of 9%. It also gave an Activity [4] of 75%, an Activity [5] of 36% and an Activity [6] of 8%. For the same molecule, the Activity [7] was 42%, the Activity [8] was 75% and the Activity [9] was 21%. It also gave an Activity [10] of less than 25%, an Activity [11] of 25% and an Activity [12] of 25%. It also gave an Activity [13] of 84%, an Activity [14] of 75% and an Activity [15] of 25%. The Activity [16] was 28%, the Activity [17] was 0.4% and the Activity [18] was 75%. It also gave an Activity [19] of 1%, an Activity [20] of 10% and an Activity [21] of less than 25%. The Activity [22] was 115%, the Activity [23] was greater than 40% and the Activity [24] was 70%. It also gave an Activity [25] of 109%, an Activity [26] of 25% and an Activity [27] of 167%. For the same molecule, the Activity [28] was 75%, the Activity [29] was 25% and the Activity [30] was less than 25%. For the same molecule, the Activity [31] was less than 25%, the Activity [32] was 25% and the Activity [33] was less than 25%. The Activity [34] was 75%, the Activity [35] was 35% and the Activity [36] was 32%. It also gave an Activity [37] of 75%, an Activity [38] of 2% and an Activity [39] of less than 25%. The Activity [40] was 154%, the Activity [41] was 75% and the Activity [42] was less than 25%. The Ki [43] was 17 nM, the Activity [44] was 67% and the Activity [45] was less than 25%.
